Results as given in US20090171105A1 (priority 2006, published 2009).

Key:
lung carcinoma = assay: antitumor activity on experimental tumor strains; assay type: in vivo; conditions: intraperitoneal and intratumoral introduction, MTD
tumor cells = assay: ATP content and apoptosis of tumor cells; assay type: cell-based
lymphoid leukemia L-1210 = assay: antitumor activity on experimental tumor strains; assay type: in vivo; conditions: intraperitoneal and intratumoral introduction, MTD
[1] = tested on: lymphocytic leukemia P-388; assay: antitumor activity on experimental tumor strains; assay type: in vivo; conditions: intraperitoneal and intratumoral introduction, MTD
RAS-genes = assay: expression of RAS-genes; assay type: cell-based
[2] = tested on: interweave tumors, resistant to prospidine, rubomicine and sarcolyzine; assay: efficiency on drug-resistant interweave tumors; assay type: in vivo
[3] = tested on: T-cellular part of immunity; assay: immunomodulating activity
[4] = tested on: mamma adenocarcinoma Ca-755; assay: antitumor activity on experimental tumor strains; assay type: in vivo; conditions: intraperitoneal and intratumoral introduction, MTD
connective tissue = assay: oxidation-reduction processes and metabolism in connective tissue
sarcoma 37 = assay: antitumor activity on experimental tumor strains; assay type: in vivo; conditions: intraperitoneal and intratumoral introduction, MTD
Ehrlich's solid tumor = assay: antitumor activity on experimental tumor strains; assay type: in vivo; conditions: intraperitoneal and intratumoral introduction, MTD
Walker carcinosarcoma = assay: antitumor activity on experimental tumor strains; assay type: in vivo; conditions: intraperitoneal and intratumoral introduction, MTD
[5] = target: (Homo sapiens, UniProt P49354+P49356); assay: inhibition of RAS-oncoprotein farnesylation; assay type: biochemical
sarcoma M-I = assay: antitumor activity on experimental tumor strains; assay type: in vivo; conditions: intraperitoneal and intratumoral introduction, MTD
[6] = tested on: alveolar mucous cancer of liver PC-1; assay: antitumor activity on experimental tumor strains; assay type: in vivo; conditions: alveolar mucous cancer of liver PC-1 of rats; intraperitoneal and intratumoral introduction, MTD

Chain of (Homo sapiens, UniProt P49354+P49356) (P49356 whole entry, one chain of several): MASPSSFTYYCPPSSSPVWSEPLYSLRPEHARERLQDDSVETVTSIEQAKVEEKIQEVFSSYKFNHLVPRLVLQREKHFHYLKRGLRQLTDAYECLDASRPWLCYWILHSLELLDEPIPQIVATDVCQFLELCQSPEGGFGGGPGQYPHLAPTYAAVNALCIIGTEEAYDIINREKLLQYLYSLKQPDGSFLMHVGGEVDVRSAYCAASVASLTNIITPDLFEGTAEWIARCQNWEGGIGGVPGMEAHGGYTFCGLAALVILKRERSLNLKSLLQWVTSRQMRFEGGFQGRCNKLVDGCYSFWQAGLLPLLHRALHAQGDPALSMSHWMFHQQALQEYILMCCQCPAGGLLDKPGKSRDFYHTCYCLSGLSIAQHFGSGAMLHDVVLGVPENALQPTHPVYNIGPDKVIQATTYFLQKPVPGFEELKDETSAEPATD

1(10)β-epoxy-13-dimethylamino-5,7α,6,11β(H)-guaia-3(4)-en-6,12-olide hydrochloride [Arglabin]
sensitivity of tumor strain (lung carcinoma): sensitive | ATP content (tumor cells): reduces | tumor cells apoptosis (tumor cells): invokes tumor cells apoptosis | sensitivity of tumor strain (lymphoid leukemia L-1210): sensitive | sensitivity of tumor strain [1]: sensitive | expression of RAS-genes (RAS-genes): reduces | efficiency in relation to resistant interweave tumors [2]: shows efficiency | correction of immunodepressive effect of cytostatic [3]: has a property to correct immunodepressive effect of cytostatic cells | immunomodulating activity ([3]; depends on dose): shows primary influence on the T-cellular part of immunity | sensitivity of tumor strain [4]: sensitive | oxidation-reduction processes and metabolism in a connective tissue (connective tissue): has ability to optimize oxidation-reduction processes and a metabolism in a connective tissue | sensitivity of tumor strain (sarcoma 37): sensitive | sensitivity of tumor strain (Ehrlich's solid tumor): sensitive | sensitivity of tumor strain (Walker carcinosarcoma): sensitive | inhibition of RAS-oncoproteins pharnesilis [5]: competitive inhibitor | sensitivity of tumor strain (sarcoma M-I): sensitive | sensitivity of tumor strain [6]: sensitive
